# Values joined by “and” are separate entries in the source; they are usually repeats but may differ in a detail not shown here. Identical values can stand only once.
# What was measured:
# [1] = Pharmacokinetic study: plasma concentration and plasma PK parameters after IV/PO dosing (LC-MS/MS, WinNonlin); type: in vivo, Male SD Rat; conditions: for AUCInf / AUClast / AUClast/D / AUC—% Extrap_obs / Cmax / MRTInf_obs / T1/2 / Tmax / AUCInf, Mean / AUClast, Mean / AUClast/D, Mean / AUC—% Extrap_obs, Mean / Cmax, Mean / MRTInf_obs, Mean / T1/2, Mean / Tmax, Mean: plasma
# Description: Pharmacokinetic and Brain Penetration Study
# Dose formulation processing during dosing: The dose formulations will be kept at room temperature.
# Concentrations of Test Article in the plasma samples will be analyzed using a LC-MS/MS method.
# WinNonlin (Phoenix™, version 6.1) or other similar software will be used for pharmacokinetic calculations. The following pharmacokinetic parameters will be calculated, whenever possible from the plasma concentration versus time data:
# IV administration: T1/2, C0, AUClast, AUCinf, MRTinf, Cl, Vss, Number of Points for Regression.
# PO administration: T1/2, Cmax, Tmax, MRTinf, AUCinf, AUClast, F %, Number of Points for Regression.
# The pharmacokinetic data will be described using descriptive statistics such as mean, standard deviation.
# [2] = Solubility studies in water at 2 hours; type: physicochemical
# [3] = male SD rat, PO 10 mg/kg (equal to freebase), individual rats, vehicle 20% HP-β-CD in water (POA, freebase) or water (salts), 10 mg/kg
# [4] = male SD rat, PO 10 mg/kg (equal to freebase), mean n=3, vehicle 20% HP-β-CD in water (POA, freebase) or water (salts)
# [5] = PO (group POF), 10 mg/kg, individual rats R49, R50, R51, 10 mg/kg
# [6] = PO (group POF), 10 mg/kg, mean of R49-R51
smiles,measurement,setting,value
COc1cc2c(cc1OC)C1Cc3ccc(O)c(OC)c3CN1CC2.CS(=O)(=O)O (stereo not drawn) [TLZ-16 mesylate],F,"[1]; male SD rat, PO 10 mg/kg (equal to freebase) vs IV 3 mg/kg freebase, individual rats, vehicle 20% HP-β-CD in water (POA, freebase) or water (salts)",39.9% and 42.6% and 38.1%
same,"F, Mean","[1]; male SD rat, PO 10 mg/kg (equal to freebase) vs IV 3 mg/kg freebase, mean n=3, vehicle 20% HP-β-CD in water (POA, freebase) or water (salts)",40.2%
same,concentration in plasma,"[1]; male SD rat, PO 10 mg/kg (equal to freebase), 0 h, individual rats, vehicle 20% HP-β-CD in water (POA, freebase) or water (salts)",BLOQ (BLOQ = below limit of quantitation (0.2 ng/mL))
same,concentration in plasma,"[1]; male SD rat, PO 10 mg/kg (equal to freebase), 0.25 h, individual rats, vehicle 20% HP-β-CD in water (POA, freebase) or water (salts), 10 mg/kg",227 ng/mL and 253 ng/mL and 256 ng/mL
same,"concentration in plasma, Mean","[1]; male SD rat, PO 10 mg/kg (equal to freebase), 0.25 h, mean n=3, vehicle 20% HP-β-CD in water (POA, freebase) or water (salts)",245 ng/mL
same,concentration in plasma,"[1]; male SD rat, PO 10 mg/kg (equal to freebase), 0.5 h, individual rats, vehicle 20% HP-β-CD in water (POA, freebase) or water (salts), 10 mg/kg",192 ng/mL and 233 ng/mL and 338 ng/mL
same,"concentration in plasma, Mean","[1]; male SD rat, PO 10 mg/kg (equal to freebase), 0.5 h, mean n=3, vehicle 20% HP-β-CD in water (POA, freebase) or water (salts)",254 ng/mL
same,concentration in plasma,"[1]; male SD rat, PO 10 mg/kg (equal to freebase), 1 h, individual rats, vehicle 20% HP-β-CD in water (POA, freebase) or water (salts), 10 mg/kg",162 ng/mL and 197 ng/mL and 208 ng/mL
same,"concentration in plasma, Mean","[1]; male SD rat, PO 10 mg/kg (equal to freebase), 1 h, mean n=3, vehicle 20% HP-β-CD in water (POA, freebase) or water (salts)",189 ng/mL
same,concentration in plasma,"[1]; male SD rat, PO 10 mg/kg (equal to freebase), 2 h, individual rats, vehicle 20% HP-β-CD in water (POA, freebase) or water (salts), 10 mg/kg",211 ng/mL and 180 ng/mL and 271 ng/mL
same,"concentration in plasma, Mean","[1]; male SD rat, PO 10 mg/kg (equal to freebase), 2 h, mean n=3, vehicle 20% HP-β-CD in water (POA, freebase) or water (salts)",221 ng/mL
same,concentration in plasma,"[1]; male SD rat, PO 10 mg/kg (equal to freebase), 4 h, individual rats, vehicle 20% HP-β-CD in water (POA, freebase) or water (salts), 10 mg/kg",208 ng/mL and 155 ng/mL and 122 ng/mL
same,"concentration in plasma, Mean","[1]; male SD rat, PO 10 mg/kg (equal to freebase), 4 h, mean n=3, vehicle 20% HP-β-CD in water (POA, freebase) or water (salts)",162 ng/mL
same,concentration in plasma,"[1]; male SD rat, PO 10 mg/kg (equal to freebase), 8 h, individual rats, vehicle 20% HP-β-CD in water (POA, freebase) or water (salts), 10 mg/kg",70.3 ng/mL and 40.7 ng/mL and 35.2 ng/mL
same,"concentration in plasma, Mean","[1]; male SD rat, PO 10 mg/kg (equal to freebase), 8 h, mean n=3, vehicle 20% HP-β-CD in water (POA, freebase) or water (salts)",48.7 ng/mL
same,concentration in plasma,"[1]; male SD rat, PO 10 mg/kg (equal to freebase), 24 h, individual rats, vehicle 20% HP-β-CD in water (POA, freebase) or water (salts), 10 mg/kg",BLOQ (BLOQ = below limit of quantitation (0.2 ng/mL)) (2×) and 0.454 ng/mL
same,AUCInf,[1]; [3],1690 ng·h/mL and 1446 ng·h/mL and 1294 ng·h/mL
same,AUClast,[1]; [3],1331 ng·h/mL and 1444 ng·h/mL and 1190 ng·h/mL
same,AUClast/D,[1]; [3],133 kg·ng·h/mL/mg and 144 kg·ng·h/mL/mg and 119 kg·ng·h/mL/mg
same,AUC—% Extrap_obs,[1]; [3],21.2% and 0.109% and 8.09%
same,Cmax,[1]; [3],227 ng/mL and 253 ng/mL and 338 ng/mL
same,MRTInf_obs,[1]; [3],5.40 h and 4.15 h and 3.26 h
same,T1/2,[1]; [3],3.54 h and 2.40 h and 2.06 h
same,Tmax,[1]; [3],0.25 h (2×) and 0.5 h
same,"AUCInf, Mean",[1]; [4],1477 ng·h/mL
same,"AUClast, Mean",[1]; [4],1322 ng·h/mL
same,"AUClast/D, Mean",[1]; [4],132 kg·ng·h/mL/mg
same,"AUC—% Extrap_obs, Mean",[1]; [4],9.82%
same,"Cmax, Mean",[1]; [4],273 ng/mL
same,"MRTInf_obs, Mean",[1]; [4],4.27 h
same,"T1/2, Mean",[1]; [4],2.67 h
same,"Tmax, Mean",[1]; [4],0.333 h
same,solubility in water,[2],approximately 20 mg/mL
COc1cc2c(cc1OC)[C@@H]1Cc3ccc(O)c(OC)c3CN1CC2.O=S(=O)(O)O [TLZ-16 sulfate],F,[1]; [5],24.8% and 31.7% and 44.5%
same,"F, Mean",[1]; [6],33.7%
same,"concentration in plasma, Conc.","[1]; PO (group POF), 10 mg/kg, time 0 h, individual rats R49, R50, R51",BLOQ (BLOQ = below limit of quantitation (0.2 ng/mL))
same,"concentration in plasma, Conc.","[1]; PO (group POF), 10 mg/kg, time 0.25 h, individual rats R49, R50, R51, 10 mg/kg",231 ng/mL and 226 ng/mL and 349 ng/mL
same,"concentration in plasma, Mean","[1]; PO (group POF), 10 mg/kg, time 0.25 h, mean of R49-R51",269 ng/mL
same,"concentration in plasma, Conc.","[1]; PO (group POF), 10 mg/kg, time 0.5 h, individual rats R49, R50, R51, 10 mg/kg",229 ng/mL and 223 ng/mL and 401 ng/mL
same,"concentration in plasma, Mean","[1]; PO (group POF), 10 mg/kg, time 0.5 h, mean of R49-R51",284 ng/mL
same,"concentration in plasma, Conc.","[1]; PO (group POF), 10 mg/kg, time 1 h, individual rats R49, R50, R51, 10 mg/kg",117 ng/mL and 161 ng/mL and 240 ng/mL
same,"concentration in plasma, Mean","[1]; PO (group POF), 10 mg/kg, time 1 h, mean of R49-R51",173 ng/mL
same,"concentration in plasma, Conc.","[1]; PO (group POF), 10 mg/kg, time 2 h, individual rats R49, R50, R51, 10 mg/kg",119 ng/mL and 152 ng/mL and 189 ng/mL
same,"concentration in plasma, Mean","[1]; PO (group POF), 10 mg/kg, time 2 h, mean of R49-R51",153 ng/mL
same,"concentration in plasma, Conc.","[1]; PO (group POF), 10 mg/kg, time 4 h, individual rats R49, R50, R51, 10 mg/kg",103 ng/mL and 110 ng/mL and 203 ng/mL
same,"concentration in plasma, Mean","[1]; PO (group POF), 10 mg/kg, time 4 h, mean of R49-R51",139 ng/mL
same,"concentration in plasma, Conc.","[1]; PO (group POF), 10 mg/kg, time 8 h, individual rats R49, R50, R51, 10 mg/kg",22.4 ng/mL and 39.9 ng/mL and 87.8 ng/mL
same,"concentration in plasma, Mean","[1]; PO (group POF), 10 mg/kg, time 8 h, mean of R49-R51",50.0 ng/mL
same,"concentration in plasma, Conc.","[1]; PO (group POF), 10 mg/kg, time 24 h, individual rats R49, R50, R51",BLOQ (BLOQ = below limit of quantitation (0.2 ng/mL))
same,AUCInf,[1]; [5],840 ng·h/mL and 1074 ng·h/mL and 2115 ng·h/mL
same,AUClast,[1]; [5],764 ng·h/mL and 899 ng·h/mL and 1486 ng·h/mL
same,AUClast/D,[1]; [5],76.4 kg·ng·h/mL/mg and 89.9 kg·ng·h/mL/mg and 149 kg·ng·h/mL/mg
same,AUC—% Extrap_obs,[1]; [5],9.10% and 16.3% and 29.8%
same,Cmax,[1]; [5],231 ng/mL and 226 ng/mL and 401 ng/mL
same,MRTInf_obs,[1]; [5],3.53 h and 4.44 h and 6.73 h
same,T1/2,[1]; [5],2.37 h and 3.05 h and 4.97 h
same,Tmax,[1]; [5],0.25 h (2×) and 0.5 h
same,"AUCInf, Mean",[1]; [6],1343 ng·h/mL
same,"AUClast, Mean",[1]; [6],1049 ng·h/mL
same,"AUClast/D, Mean",[1]; [6],105 kg·ng·h/mL/mg
same,"AUC—% Extrap_obs, Mean",[1]; [6],18.4%
same,"Cmax, Mean",[1]; [6],286 ng/mL
same,"MRTInf_obs, Mean",[1]; [6],4.90 h
same,"T1/2, Mean",[1]; [6],3.46 h
same,"Tmax, Mean",[1]; [6],0.333 h
same,solubility in water,[2],approximately 20 mg/mL

# Source: patent publication US11236081B2, “Crystalline salts of corydalmine” (priority 2018, dated 2022)
